According to patent publication US12435315B2, “Generating dorsal foregut, and anterior domain, endoderm cells” (The Cleveland Clinic Foundation, priority 2019, dated 2025):

Columns and labels:
Type in all cases: cell-based, human
pluripotent stem cells [1] = assay: DoE/ISPA of biologically active retinoids for HNF1β induction (DFE induction); conditions: retinoid DoE; 13-cis and all trans stated to contribute negatively
From the text: (§1) All DoE experimental designs were computer generated using D-optimal interaction designs in MODDE software (Sartorius Stedim Data Analytical Solutions, SSDAS). Perturbation matrixes were generated (96 independent experimental runs) on a Freedom Evol50 liquid handling robot (TECAN, CH). Each DoE differentiation experiment used a 3-day application of perturbation matrixes with daily media replacements. All cell culture, including manual preparatory expansion and seeding as well as any robotic manipulations were contained in a modular X-Vivo system (Biospherix, NY, USA) providing Process Analytical Technology (PAT) of the cell culture conditions (affording % N2, % O2, % CO2, and temperature control and monitoring at any point in the experimental process). End-point data collection was performed using an Open Array RT-QPCR method (QuantStudio, Life Technologies, 53 genes/sample/card). QuantStudio gene expression data were normalized within Expression Suite™ (Life Tech), standardized, and exported to MODDE. Mathematical modeling of the differentiation space was performed in MODDE using PLS maximizing the explained variance and subsequently gene-specific models were tuned by Q2 maximization. Fitted model optimized conditions for response maximization or minimization were extracted using the software predictive tools ‘optimizer’ and ‘dynamic profile’ analysis. Virtual experiments were performed in the known space covered by the experimental design, addressing pathway relative contributions to the desired parameters.
Samples were loaded onto a custom design Quant Studio Card using an OpenArray AccuFill System (Life Technologies 4471021) and ran on a QuantStudio 12k Flex Real-Time PCR System (Life Technologies 4471090). The QuantStudio Open Array analysis provided expression information of 53 chosen genes per open array configuration. […] Initial designs included genes responding to all major sub-lineage fates downstream of pluripotency, while the later design focused more on endodermal lineages with an emphasis on pancreatic fates. […]

pluripotent cultures [2] = assay: DoE/ISPA modeling of endodermal gene induction from pluripotency (3-day perturbation matrix, OpenArray RT-QPCR); conditions: ISPA prediction; for factor contribution (FC) for FOXA2 expression / factor contribution (FC) for HNF1β expression / factor contribution (FC) for MNX1 expression: pluripotent cultures
Method: Pluripotent cultures were adapted to Essential 8 media (Gibco A15169-01) and grown on vitronectin (Gibco A14700) coated plates (Corning Inc. 3598). Differentiation experiments were seeded at 75,000 cells per cm^2 and maintained in E8 medium for 48 hours until cultures were approximately 90% confluent before initiating differentiation. All growth factors and small molecules were reconstituted according to supplier's recommendations and aliquots were stored at −80° C. for up to a year. Growth medium was changed daily and with the exception of the DE protocol the basal medium used in all differentiation experiments was CDM2 (Loh et al., 2014). The APS^Opt was composed of 250 nM LDN3189 (Sellekchem S2618), 50 ng/ml Activin A (Peprotech 120-14), 20 ng/ml bFGF (Gibco 13256029), 100 nM Sant1 (Sellekchem S7092). The HNF1β^Opt was supplemented with 250 nM LDN3189, 500 nM A8301 (Biogems 4463325), 12.6 ng/ml Wnt3a (R&D 5036WN/CF), 25 ng/ml bFGF, 250 nM PD0325 (Selleckchme S1036), 40 ng/ml SHH (Peprotech 100-45) and 2 uM retinoic acid (Sigma Aldrich R2625). DE was generated using conditions previously described (Rezania et al., 2014, D'Amour et al., 2005). The PDX1^Opt was composed of 500 nM A8301, 250 nM LDN3189, 100 nM Sant1, 250 nM PD0325, 2 uM retinoic acid and 1% B27 supplement (Gibco 12587) and with the exception of where it is stated differently in the text was used for 3 sequential days on differentiating cells. Endocrine push medium was supplemented with 100 nM gamma-secretase inhibitor XX (EMD Millipore 565789) and 500 nM A8301. Stomach organoids were generated using a modified protocol (McCracken et al., 2014). Briefly HNF1β^Opt cultures were incubated for three days with a stage 2 medium supplemented with 500 ng/ml Wnt3a, 500 ng/ml FGF4 (R&D 7460-F4), 250 nM LDN3189 and 2 uM retinoic acid (RA first day only). Cultures were passaged 1:6 with seeding occurring in a 1:4 Matrigel (Fisher Scientific 354230)/CDM2 mixture and incubated for 30 minutes at 37° C. before a three day application of stage 3 medium composed of 2 uM retinoic acid, 250 nM LDN3189 and 100 ng/ml EGF (R&D 236-EG). Cultures were then supplemented with a stage 4 medium supplemented with 100 ng/ml EGF for 23 days before organoids were recovered and fixed for sectioning.
as §1
RNA extractions for modeling analysis were performed using a MagMax-96 Total RNA Isolation Kit (Life Technologies AM1830) and performed according to manufacturer's protocol. […]

pluripotent stem cells [3] = assay: Immunostaining and high content imaging of DFE markers (conversion efficiency); conditions: immunostaining of DFE markers, compared with HNF1β^Opt / RA
Method: Histological characterization occurred by treating cell cultures with 4% paraformaldehyde (EMD 30525-89-4) solution at ambient temperature for 15 minutes. Samples were then blocked and permeabilized using 0.1M Tris/HCl (Promega H5123) pH 7.5 supplemented with 0.5% blocking reagent (Perkin Elmer FP1012) and 0.1% TrintonX-100 (Fisher Scientific BP151) for 1 hour. All antibody solutions were diluted in 0.1M Tris/HCl (Promega H5123) pH 7.5 and primary antibodies were incubated over-night while secondary antibodies were incubated for an hour. All incubations occurred at ambient temperature. Cultures were treated with a 1:2 dilution of Vectashield mounting medium (Vector Laboratories H-1200).
To further validate the induction conditions for DFE markers, immunostaining was performed, followed by high content imaging to assess conversion efficiency.

[4] = test system: DFE-derived endocrine cultures; assay: Glucose stimulated insulin release assay (GSIS), C-peptide ELISA; conditions: 30 mM KCl, 30 minute incubation, versus 2 mM glucose basal
Method: GSIS assays were performed by incubating cells in Krebs-Ringer buffer supplemented with 2 mM glucose for 30 minutes for determination of basal C-peptide levels. This was followed by changing reaction buffer to a Krebs Ringer buffer either supplemented with 20 mM glucose or 30 mM KCl for an additional 30 minute incubation. Buffer samples were collected and C-Peptide levels were quantified using ELISA (Mercodia 10-1141-01) according to manufacturer's protocol. Microfludic assays were performed as previously described (Adewola et al., 2010, Wang et al., 2012).

DFE culture = assay: Sequential DoE/ISPA modelling on DFE culture, maximizing SOX2, OSR1 or PDX1 expression; conditions: ISPA; for factor contribution (FC) for PDX1 (pancreatic) activation: PDX1^Opt
From the text: Since we observed that the DFE cultures were competent for both stomach and pancreas induction we next evaluated this bi-potential nature through a sequential DoE modelling experiment performed on the DFE culture.
Results from ISPA maximization of the expression of SOX2, OSR1 or PDX1 were compared (FIGS. 4A & B).
Pluripotent cultures were adapted to Essential 8 media (Gibco A15169-01) and grown on vitronectin (Gibco A14700) coated plates (Corning Inc. 3598). Differentiation experiments were seeded at 75,000 cells per cm^2 and maintained in E8 medium for 48 hours until cultures were approximately 90% confluent before initiating differentiation. All growth factors and small molecules were reconstituted according to supplier's recommendations and aliquots were stored at −80° C. for up to a year. Growth medium was changed daily and with the exception of the DE protocol the basal medium used in all differentiation experiments was CDM2 (Loh et al., 2014). The APS^Opt was composed of 250 nM LDN3189 (Sellekchem S2618), 50 ng/ml Activin A (Peprotech 120-14), 20 ng/ml bFGF (Gibco 13256029), 100 nM Sant1 (Sellekchem S7092). The HNF1β^Opt was supplemented with 250 nM LDN3189, 500 nM A8301 (Biogems 4463325), 12.6 ng/ml Wnt3a (R&D 5036WN/CF), 25 ng/ml bFGF, 250 nM PD0325 (Selleckchme S1036), 40 ng/ml SHH (Peprotech 100-45) and 2 uM retinoic acid (Sigma Aldrich R2625). […] The PDX1^Opt was composed of 500 nM A8301, 250 nM LDN3189, 100 nM Sant1, 250 nM PD0325, 2 uM retinoic acid and 1% B27 supplement (Gibco 12587) and with the exception of where it is stated differently in the text was used for 3 sequential days on differentiating cells.

pluripotent cultures [5] = assay: HD-DoE gastrulation modeling, normalized effector factor contributions for endodermal genes; conditions: ISPA
From the text: as §1, with “Virtual experiments were performed in the known space covered by the experimental design, addressing pathway relative contributions to the desired parameters.” left out
To better understand how the in vitro produced endodermal populations being studied are patterned we next performed a follow-up DoE-based gastrulation modeling experiment (FIG. 16A). ISPA optimizing for all the individual endoderm genes measured were then subjected to a cluster analysis using Seurat R package (FIG. 16B). […]
HD-DoE designs incorporating Activin A (AA), BMP4, NODAL, retinoic acid and respective inhibitors were used on pluripotent cultures and key endodermal genes were monitored (FIG. 16). Resulting data was imported into analysis software and computer models predicting optimal culture conditions for activating all genes monitored were clustered (FIG. 19B). […]

CC1=C(/C=C/C(C)=C/C=C/C(C)=C/C(=O)O)C(C)(C)CCC1=O [4-oxo-retinoic acid]
factor contribution (FC) to HNF1β induction (pluripotent stem cells [1]): 13.21

CC1=C(/C=C/C(C)=C/C=C/C(C)=C\C(=O)O)C(C)(C)CCC1 [13-cis retinoic acid]
factor contribution (FC) to HNF1β induction (pluripotent stem cells [1]): 24.1609

Cc1cccc(-c2nn(C(=S)Nc3ccccc3)cc2-c2ccnc3ccccc23)n1 [Alk5i, A8301]
factor contribution (FC) for FOXA2 expression (pluripotent cultures [2]): 8.88 | factor contribution (FC) for HNF1β expression (pluripotent cultures [2]): 7.59 | factor contribution (FC) for MNX1 expression (pluripotent cultures [2]): 18.98

c1ccc2c(-c3cnn4cc(-c5ccc(N6CCNCC6)cc5)cnc34)ccnc2c1 [BMPi, LDN193189]
factor contribution (FC) for FOXA2 expression (pluripotent cultures [2]): 25.3 | factor contribution (FC) for HNF1β expression (pluripotent cultures [2]): 31.7 | factor contribution (FC) for MNX1 expression (pluripotent cultures [2]): 30.5

CC1(C)CCC(C)(C)c2cc(C#Cc3ccc(C(=O)O)cc3)ccc21 [EC23]
effectiveness of DFE induction by alternative retinoic acid pathway agonists (pluripotent stem cells [3]): operates equivalently to RA

[Cl-].[K+] [KCl]
increase in detectable C-peptide levels [4]: 4 fold

O=C(NOC[C@H](O)CO)c1ccc(F)c(F)c1Nc1ccc(I)cc1F [PD0325901]
factor contribution (FC) for PDX1 (pancreatic) activation (DFE culture): 29.62

CC1=C(/C=C/C(C)=C/C=C/C(C)=C/C(=O)O)C(C)(C)CCC1 [RA, retinoic acid]
factor contribution (FC) for FOXA2 expression (pluripotent cultures [2]): 24.8 | factor contribution (FC) for HNF1β expression (pluripotent cultures [2]): 30.1 | factor contribution (FC) for MNX1 expression (pluripotent cultures [2]): 22.7 | factor contribution (FC) for OSR1 (gastric) activation (DFE culture): 30.68 | factor contribution (FC) for SOX2 expression (DFE culture): −28.59 | factor contribution (FC) for PDX1 (pancreatic) activation (DFE culture): 31.38 | factor contribution (FC) to HNF1β induction (pluripotent stem cells [1]): 2.773

SHH
factor contribution (FC) for SOX2 expression (DFE culture): 29.58

B1: Activin A (protein, UniProt P08476 311-426, looked up)
Inhibin beta A chain: GLECDGKVNICCKKQFFVSFKDIGWNDWIIAPSGYHANYCEGECPSHIAGTSGSSLSFHSTVINHYRMRGHSPFANLKSCCVPTKLRPMSMLYYDDGQNIIKKDIQNMIVEECGCS
modifications: Inhibin beta A chain
notes: TGFβ pathway agonist used as a Nodal mimic
contribution to activating retinoic acid/BMP inhibition-dependent endoderm genes (pluripotent cultures [2]; FOXA2, HNF1β, MNX1 etc.): no contribution | factor contribution (FC) to anterior primitive streak (APS) gene induction (pluripotent cultures [2]; maximal MESP1, EOMES, BRACHYURY/T, minimal EVX1): 18.85 | normalized factor contribution for OSR1 activation (pluripotent cultures [5]): −1.0 | normalized factor contribution for PAX9 activation (pluripotent cultures [5]): −0.85 | normalized factor contribution for TBX1 activation (pluripotent cultures [5]): −0.59

B2: FGF4 (protein, UniProt P08620 31-206, looked up)
Fibroblast growth factor 4: APTAPNGTLEAELERRWESLVALSLARLPVAAQPKEAAVQSGAGDYLLGIKRLRRLYCNVGIGFHLQALPDGRIGGAHADTRDSLLELSPVERGVVSIFGVASRFFVAMSSKGKLYGSPFFTDECTFKEILLPNNYNAYESYKYPGMFIALSKNGKTKKGNRVSPTMKVTHFLPRL
notes: FGF signaling growth factor (R&D 7460-F4)
factor contribution (FC) for OSR1 (gastric) activation (DFE culture): 13.45
